Structures can show the parent of a compound that is named as a salt.
Legend:
Type in all cases: biochemical
Settings in all cases: single concentration (200, 100 or 50 μM), in duplicate, versus the positive control (vehicle)
[1] = molecular target: T1, DNA gyrase (Escherichia coli, UniProt P0AES4+P0AES6); assay: DNA gyrase supercoiling assay (E. coli)
T1 construct: purchased Inspiralis, UK
Protocol: (§1) The above compounds were tested for the inhibition of the enzyme DNA gyrase in a gyrase supercoiling assay and for the inhibition of the enzyme topoisomerase IV in a decatenation assay, in both Gram positive and Gram negative bacteria, according to the following methods.
(§2) Both the assays were carried out according to a set-up method modified from the article to Blanche F, et al. “Differential Behaviors of Staphylococcus aureus and Escherichia coli Type II DNA Topoisomerases”, Antimicrob.
(§3) The compounds were screened at single concentration (200, 100 or 50 μM), in duplicate.
(§4) Ciprofloxacin and novobiocin were used as reference compounds, at single concentration of 200 and 50 μM, respectively.
(§5) DNA Gyrase Supercoiling Assay.
(§6) Reagents from S. aureus and E. coli Gyrase Supercoiling Assay kits (Inspiralis, UK) were used. A master mix with a total volume sufficient for the number of reactions to perform was prepared with the following reagents: 5× assay buffer, relaxed pBR322 substrate (0.5 μg/reaction), RNase-DNase free water. Aliquotes of this mix were dispensed in each tube, then 10× compound stock solutions or vehicle control (DMSO), were added to each reaction tube.
(§7) Reaction was started with E. Coli (2 U/reaction) or S. aureus (1 U/reaction) gyrase enzyme addition.
(§8) A sample added with an equal volume of dilution buffer was used as negative control (without enzyme).
(§9) The reaction tubes were gentle vortexed and incubated 30 minutes at 37° C. Each reaction was stopped by adding 30 μl of Stop Buffer and 30 μl chloroform/isoamyl alcohol (24/1), briefly vortexed for 5-10 seconds and centrifuged at 20000×g for 2 minutes. Samples were loaded onto 1% agarose gel and subjected to electrophoresis for 1 hour at 80V constant voltage in TAE (40 mM Tris-acetate, 2 mM EDTA).
(§10) Data acquisition and analysis. Treatment of relaxed pBR322 with DNA gyrase converted the relaxed topoisomers (DNAs of different linking number) to the supercoiled form of the plasmid, which migrates faster on an agarose gel. An upper band might also be visible, which consists of open-circular (nicked) DNA which is present in the relaxed substrate but co-migrates with some of the relaxed topoisomers.
(§11) Bands were visualized by ethidium bromide staining (dil 1:20000) for 30 minutes followed by destaining in distilled water for 10 minutes.
(§12) In order to evaluate the compounds activity on the enzyme, the bands of supercoiled DNAs in the gel were photographed by a digital imaging system ImageQuant LAS 4000 (GE Healthcare) according to manufacturer's instructions.
(§13) The fluorescent intensity of each band was analysed by ImageQuant TL software and it was expressed as volume (volume of the uncalibrated quantity of material in the image feature after subtraction of the background intensity by using rolling ball method).
(§14) Each band intensity was compared, as percentage, to vehicle sample band intensity, which served as positive control, on the same gel.
(§15) Inhibitory activity was expressed as percent of inhibition versus the positive control.

[2] = molecular target: T2, Topoisomerase IV (Escherichia coli, UniProt P0AFI2+P20083); assay: Topoisomerase IV decatenation assay (E. coli)
T2 construct: purchased Inspiralis, UK
Protocol: as §1, §2, §3, §4
(§16) Topoisomerase IV Decatenation Assay
(§17) S. aureus and E. coli Topoisomerase IV decatenation kits (Inspiralis, UK) were used. A master mix with a total volume sufficient for the number of reactions to perform was prepared with the following reagents: 5× assay buffer (50 mM HEPES-KOH (pH 7.6), 100 mM potassium glutamate, 10 mM magnesium acetate, 10 mM DTT, 1 mM ATP, 50 μg/ml albumin), kDNA substrate (200 ng/reaction), RNase-DNase free water. Aliquots of this mix were dispensed in each tube, then 10× compound stock solutions or vehicle control (DMSO), were added in each reaction tube.
(§18) Reaction was started with Topoisomerase IV enzyme (0.5 U/reaction) addition.
as §8
(§19) The reaction tubes were gentle vortexed and incubated 30 minutes at 37° C. Each reaction was stopped by adding 30 μl of Stop Buffer and 30 μl of chloroform/isoamyl alcohol (24/1), briefly vortexed for 5-10 seconds and centrifuged at 20000×g for 2 minutes. Samples taken from the upper phase were loaded into 1% agarose gel and subjected to electrophoresis for 1 hour at 80V constant voltage in TAE (40 mM Tris-acetate, 2 mM EDTA).
(§20) Data acquisition and analysis. Due to the high molecular mass, kDNA could not enter an agarose gel under normal electrophoresis conditions, but remained in the wells. In the presence of Topo IV topoisomerase mini-circles (2.5 Kb) were released from kDNA by decatenation and were quickly and easily resolved in the gel at relatively high voltages.
as §11
(§21) For single concentration screening assay, in order to evaluate the compounds activity on the enzymes, the bands of decatenated DNAs in the gel were photographed by a digital imaging system ImageQuant LAS 4000 (GE Healthcare) according to manufacturer's instructions.
(§22) The fluorescent intensity of each band was analyzed by ImageQuant TL software and it was expressed as volume (volume of the uncalibrated quantity of material in the image feature after subtraction of the background intensity by using rolling ball method).
as §14, §15

[3] = molecular target: T3, DNA gyrase (Staphylococcus aureus, UniProt P0A0K8+P20831); assay: DNA gyrase supercoiling assay (S. aureus)
T3 construct: purchased Inspiralis, UK
Protocol: as §1, §2, §3, §4, §5, §6, §7, §8, §9, §10, §11, §12, §13, §14, §15

[4] = molecular target: T4, Topoisomerase IV (Staphylococcus aureus, UniProt P0C1S7+P0C1U9); assay: Topoisomerase IV decatenation assay (S. aureus)
T4 construct: purchased Inspiralis, UK
Protocol: as §1, §2, §3, §4, §16, §17, §18, §8, §19, §20, §11, §21, §22, §14, §15

T1 sequence (P0AES4 whole entry, one chain of several): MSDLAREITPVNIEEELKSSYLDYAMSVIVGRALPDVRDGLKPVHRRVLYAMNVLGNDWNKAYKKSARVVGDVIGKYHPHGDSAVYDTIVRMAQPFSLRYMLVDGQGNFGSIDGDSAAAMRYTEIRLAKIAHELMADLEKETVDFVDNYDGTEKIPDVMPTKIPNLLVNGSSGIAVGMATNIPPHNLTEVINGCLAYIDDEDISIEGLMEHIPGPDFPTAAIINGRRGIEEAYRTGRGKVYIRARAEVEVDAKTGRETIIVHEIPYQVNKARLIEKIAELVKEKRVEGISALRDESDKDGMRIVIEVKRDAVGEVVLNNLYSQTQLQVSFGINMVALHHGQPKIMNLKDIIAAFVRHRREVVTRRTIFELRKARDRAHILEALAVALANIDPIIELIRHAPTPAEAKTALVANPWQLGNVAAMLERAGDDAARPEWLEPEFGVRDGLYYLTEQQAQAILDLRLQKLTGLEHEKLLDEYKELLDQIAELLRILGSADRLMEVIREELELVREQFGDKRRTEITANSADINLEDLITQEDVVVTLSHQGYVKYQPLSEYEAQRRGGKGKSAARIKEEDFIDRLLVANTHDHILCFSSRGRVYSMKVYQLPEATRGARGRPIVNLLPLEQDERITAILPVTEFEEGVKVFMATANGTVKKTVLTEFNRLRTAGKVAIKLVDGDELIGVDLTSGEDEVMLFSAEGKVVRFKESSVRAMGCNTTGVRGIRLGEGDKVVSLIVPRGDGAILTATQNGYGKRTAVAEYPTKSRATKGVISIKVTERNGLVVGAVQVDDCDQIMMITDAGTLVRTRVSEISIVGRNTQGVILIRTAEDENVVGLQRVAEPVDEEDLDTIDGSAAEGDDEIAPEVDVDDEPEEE
T4 sequence (P0C1S7 whole entry): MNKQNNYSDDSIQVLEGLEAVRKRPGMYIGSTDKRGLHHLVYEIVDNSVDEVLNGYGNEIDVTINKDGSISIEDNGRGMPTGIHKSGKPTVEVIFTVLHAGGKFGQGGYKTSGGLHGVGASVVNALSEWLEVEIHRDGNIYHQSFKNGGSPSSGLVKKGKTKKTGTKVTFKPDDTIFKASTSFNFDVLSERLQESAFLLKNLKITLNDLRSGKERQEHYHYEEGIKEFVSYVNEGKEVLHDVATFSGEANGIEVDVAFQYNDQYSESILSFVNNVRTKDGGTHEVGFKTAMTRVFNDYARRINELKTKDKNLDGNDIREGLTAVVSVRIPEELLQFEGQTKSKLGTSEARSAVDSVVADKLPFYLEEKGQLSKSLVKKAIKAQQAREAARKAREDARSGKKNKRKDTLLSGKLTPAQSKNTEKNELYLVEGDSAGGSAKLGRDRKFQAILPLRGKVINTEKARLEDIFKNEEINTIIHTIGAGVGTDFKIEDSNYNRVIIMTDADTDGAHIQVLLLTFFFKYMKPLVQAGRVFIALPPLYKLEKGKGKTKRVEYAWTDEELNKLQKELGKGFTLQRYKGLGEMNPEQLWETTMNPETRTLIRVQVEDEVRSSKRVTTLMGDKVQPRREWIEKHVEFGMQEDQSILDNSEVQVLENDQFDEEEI
T4 sequence (P0C1U9 whole entry): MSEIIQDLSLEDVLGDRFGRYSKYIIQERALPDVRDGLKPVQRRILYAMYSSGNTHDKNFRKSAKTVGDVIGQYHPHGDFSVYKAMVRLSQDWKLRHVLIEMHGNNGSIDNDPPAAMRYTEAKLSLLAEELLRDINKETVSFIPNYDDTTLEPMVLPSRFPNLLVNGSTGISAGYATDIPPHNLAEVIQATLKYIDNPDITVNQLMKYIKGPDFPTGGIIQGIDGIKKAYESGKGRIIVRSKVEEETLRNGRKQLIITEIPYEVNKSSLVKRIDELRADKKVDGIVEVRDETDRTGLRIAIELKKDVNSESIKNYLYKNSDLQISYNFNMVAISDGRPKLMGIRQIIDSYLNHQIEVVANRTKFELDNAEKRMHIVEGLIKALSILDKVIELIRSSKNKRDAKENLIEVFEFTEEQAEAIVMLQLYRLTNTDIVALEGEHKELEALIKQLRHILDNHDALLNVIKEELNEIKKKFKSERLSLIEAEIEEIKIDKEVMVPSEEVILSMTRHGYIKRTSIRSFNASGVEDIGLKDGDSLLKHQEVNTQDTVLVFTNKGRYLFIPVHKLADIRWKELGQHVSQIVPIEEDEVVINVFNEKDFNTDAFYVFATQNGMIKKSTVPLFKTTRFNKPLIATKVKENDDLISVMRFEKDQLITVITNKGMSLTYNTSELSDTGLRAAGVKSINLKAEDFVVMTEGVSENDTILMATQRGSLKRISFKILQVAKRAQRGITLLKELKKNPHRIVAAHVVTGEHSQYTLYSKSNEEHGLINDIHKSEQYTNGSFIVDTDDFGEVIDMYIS
T2 sequence (P20083 whole entry): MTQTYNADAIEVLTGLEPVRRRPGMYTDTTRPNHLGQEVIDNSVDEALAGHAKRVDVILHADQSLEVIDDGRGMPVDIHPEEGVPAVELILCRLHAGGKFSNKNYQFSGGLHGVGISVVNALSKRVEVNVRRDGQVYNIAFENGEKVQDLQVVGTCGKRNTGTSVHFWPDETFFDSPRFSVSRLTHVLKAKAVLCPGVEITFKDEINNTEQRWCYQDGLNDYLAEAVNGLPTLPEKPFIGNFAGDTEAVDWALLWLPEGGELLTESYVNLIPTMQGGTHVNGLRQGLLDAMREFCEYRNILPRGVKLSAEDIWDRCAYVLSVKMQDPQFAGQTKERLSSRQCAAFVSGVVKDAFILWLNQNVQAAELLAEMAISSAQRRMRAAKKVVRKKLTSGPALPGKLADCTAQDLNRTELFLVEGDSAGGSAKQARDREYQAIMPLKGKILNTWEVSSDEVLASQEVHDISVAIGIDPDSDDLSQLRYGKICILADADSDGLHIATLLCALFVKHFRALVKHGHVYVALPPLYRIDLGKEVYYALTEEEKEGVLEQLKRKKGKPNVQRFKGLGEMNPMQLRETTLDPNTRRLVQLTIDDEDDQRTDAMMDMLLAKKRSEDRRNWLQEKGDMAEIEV
T2 sequence (P0AFI2 whole entry): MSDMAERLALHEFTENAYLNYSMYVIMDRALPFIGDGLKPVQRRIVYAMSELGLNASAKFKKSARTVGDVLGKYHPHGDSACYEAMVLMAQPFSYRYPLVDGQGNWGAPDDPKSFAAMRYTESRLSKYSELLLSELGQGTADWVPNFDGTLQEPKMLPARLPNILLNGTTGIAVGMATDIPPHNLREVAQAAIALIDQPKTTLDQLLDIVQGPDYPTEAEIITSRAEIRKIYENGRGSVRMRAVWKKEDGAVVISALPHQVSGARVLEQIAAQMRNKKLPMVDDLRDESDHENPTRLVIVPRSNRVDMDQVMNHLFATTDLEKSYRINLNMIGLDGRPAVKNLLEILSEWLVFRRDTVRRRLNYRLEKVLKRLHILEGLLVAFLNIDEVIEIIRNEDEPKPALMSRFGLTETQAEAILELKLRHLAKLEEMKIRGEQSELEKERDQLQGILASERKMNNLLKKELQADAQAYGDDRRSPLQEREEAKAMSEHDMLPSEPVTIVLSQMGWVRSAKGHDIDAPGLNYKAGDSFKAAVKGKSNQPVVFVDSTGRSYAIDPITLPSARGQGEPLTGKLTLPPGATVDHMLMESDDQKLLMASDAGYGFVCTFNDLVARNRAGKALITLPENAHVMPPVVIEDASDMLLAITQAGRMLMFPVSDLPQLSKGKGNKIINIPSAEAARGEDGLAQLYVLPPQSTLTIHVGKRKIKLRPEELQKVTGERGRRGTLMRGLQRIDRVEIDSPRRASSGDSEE

`O=C(NCCN1CCN(c2nccc3ccccc23)CC1)c1ccccc1` [Compound 4, N-{2-[4-(isoquinolin-1-yl)piperazin-1-yl]ethyl}benzamide hydrochloride] was tested, and the “% inhibition DNA gyrase” value [1] was “n/a (n/a = not active)”, the “% inhibition Topo IV” value [2] was 53% and the “% inhibition DNA gyrase” value [3] was 84%. The “% inhibition Topo IV” value [4] was “n/a (n/a = not active)”.

In the case of `Cc1cc2ccccc2c(N2CCN(CCCNC(=O)c3cccnc3)CC2)n1` [Compound 21, N-{3-[4-(3-methylisoquinolin-1-yl)piperazin-1-yl]propyl}pyridine-3-carboxamide hydrochloride], the “% inhibition DNA gyrase” value [1] is reported as “n/a (n/a = not active)”, the “% inhibition Topo IV” value [2] is reported as “n/a (n/a = not active)” and the “% inhibition DNA gyrase” value [3] is reported as 67%. For the same molecule, the “% inhibition Topo IV” value [4] was “n/a (n/a = not active)”.

`O=C(NCCCN1CCN(c2nccc3ccccc23)CC1)c1cnc2ccoc2c1` [Compound 31, N-{3-[4-(isoquinolin-1-yl)piperazin-1-yl]propyl}furo[3,2-b]pyridine-6-carboxamide hydrochloride] was tested, and the “% inhibition DNA gyrase” value [1] was “n/a (n/a = not active)”, the “% inhibition Topo IV” value [2] was “n/a (n/a = not active)” and the “% inhibition DNA gyrase” value [3] was 65%. For the same molecule, the “% inhibition Topo IV” value [4] was “n/a (n/a = not active)”.

In the case of `Cc1ccc2c(N3CCN(CCCNC(=O)c4cccnc4)CC3)nccc2c1` [Compound 35, N-{3-[4-(6-methylisoquinolin-1-yl)piperazin-1-yl]propyl}pyridine-3-carboxamide], the “% inhibition DNA gyrase” value [1] is reported as “n/a (n/a = not active)”, the “% inhibition Topo IV” value [2] is reported as “n/a (n/a = not active)” and the “% inhibition DNA gyrase” value [3] is reported as 78%. The “% inhibition Topo IV” value [4] was “n/a (n/a = not active)”.

`COc1ccc2c(N3CCN(CCCNC(=O)c4cccnc4)CC3)nccc2c1` [Compound 36, N-{3-[4-(6-methoxyisoquinolin-1-yl)piperazin-1-yl]propyl}pyridine-3-carboxamide hydrochloride] was tested, and the “% inhibition DNA gyrase” value [1] was “n/a (n/a = not active)”, the “% inhibition Topo IV” value [2] was “n/a (n/a = not active)” and the “% inhibition DNA gyrase” value [3] was 90%. The “% inhibition Topo IV” value [4] was “n/a (n/a = not active)”.

For `Fc1ccc(F)c(CNCCCN2CCN(c3nccc4ccccc34)CC2)c1` [Compound 38, N-(2,5-difluorobenzyl)-3-[4-(isoquinolin-1-yl)piperazin-1-yl]propan-1-amine hydrochloride], the “% inhibition DNA gyrase” value [1] was “n/a (n/a = not active)”, the “% inhibition Topo IV” value [2] was “n/a (n/a = not active)” and the “% inhibition DNA gyrase” value [3] was 63%. For the same molecule, the “% inhibition Topo IV” value [4] was “n/a (n/a = not active)”.

With `O=C(NCCCN1CCN(c2nccc3ccccc23)CC1)c1cc(F)ccc1F` [Compound 39, 2,5-difluoro-N-{3-[4-(isoquinolin-1-yl)piperazin-1-yl]propyl}benzamide hydrochloride] the “% inhibition DNA gyrase” value [1] was 50%, the “% inhibition Topo IV” value [2] was “n/a (n/a = not active)” and the “% inhibition DNA gyrase” value [3] was 74%. For the same molecule, the “% inhibition Topo IV” value [4] was “n/a (n/a = not active)”.

`O=C(NCCCN1CCN(c2nccc3ccccc23)CC1)c1cc2ccoc2cn1` [Compound 42, N-{3-[4-(isoquinolin-1-yl)piperazin-1-yl]propyl}furo[2,3-c]pyridine-5-carboxamide hydrochloride] was tested, and the “% inhibition DNA gyrase” value [1] was “n/a (n/a = not active)”, the “% inhibition Topo IV” value [2] was “n/a (n/a = not active)” and the “% inhibition DNA gyrase” value [3] was 84%. The “% inhibition Topo IV” value [4] was “n/a (n/a = not active)”.

`O=C(NCCCN1CCN(c2nccc3ncccc23)CC1)c1cccnc1` [Compound 43, N-{3-[4-(1,6-naphthyridin-5-yl)piperazin-1-yl]propyl}pyridine-3-carboxamide hydrochloride] was tested, and the “% inhibition DNA gyrase” value [1] was “n/a (n/a = not active)”, the “% inhibition Topo IV” value [2] was “n/a (n/a = not active)” and the “% inhibition DNA gyrase” value [3] was 100%. The “% inhibition Topo IV” value [4] was “n/a (n/a = not active)”.

For `O=C(NCCCN1CCN(c2nccc3cc(F)ccc23)CC1)c1cccnc1` [Compound 45, N-{3-[4-(6-fluoroisoquinolin-1-yl)piperazin-1-yl]propyl}pyridine-3-carboxamide hydrochloride], the “% inhibition DNA gyrase” value [1] was “n/a (n/a = not active)”, the “% inhibition Topo IV” value [2] was “n/a (n/a = not active)” and the “% inhibition DNA gyrase” value [3] was 81%. For the same molecule, the “% inhibition Topo IV” value [4] was “n/a (n/a = not active)”.

In the case of `O=c1cc(NCCCN2CCN(c3cccc4ccccc34)CC2)c2ccccc2o1` [Compound 50, 4-({3-[4-(naphthalen-1-yl)piperazin-1-yl]propyl}amino)-2H-chromen-2-one hydrochloride], the “% inhibition DNA gyrase” value [1] is reported as 92%, the “% inhibition Topo IV” value [2] is reported as “n/a (n/a = not active)” and the “% inhibition DNA gyrase” value [3] is reported as “n/a (n/a = not active)”. For the same molecule, the “% inhibition Topo IV” value [4] was “n/a (n/a = not active)”.

For `CN(CCCN1CCN(c2nccc3ccccc23)CC1)c1cc(=O)oc2ccccc12` [Compound 53, 4-[{3-[4-(isoquinolin-1-yl)piperazin-1-yl]propyl}(methyl)amino]-2H-chromen-2-one hydrochloride], the “% inhibition DNA gyrase” value [1] was 64%, the “% inhibition Topo IV” value [2] was “n/a (n/a = not active)” and the “% inhibition DNA gyrase” value [3] was 57%. The “% inhibition Topo IV” value [4] was “n/a (n/a = not active)”.

With `O=c1cc(NCCCN2CCN(c3nccc4ccccc34)CC2)cc(-c2ccccc2)o1` [Compound 60, 4-({3-[4-(isoquinolin-1-yl)piperazin-1-yl]propyl}amino)-6-phenyl-2H-pyran-2-one hydrochloride] the “% inhibition DNA gyrase” value [1] was 100%, the “% inhibition Topo IV” value [2] was “n/a (n/a = not active)” and the “% inhibition DNA gyrase” value [3] was 89%. The “% inhibition Topo IV” value [4] was “n/a (n/a = not active)”.

For `O=c1cc(N2CCN(CCCNc3cc(=O)oc4ccccc34)CC2)c2ccccc2[nH]1` [Compound 68, 4-(4-{3-[(2-oxo-2H-chromen-4-yl)amino]propyl}piperazin-1-yl)quinolin-2(1H)-one hydrochloride], the “% inhibition DNA gyrase” value [1] was 100%, the “% inhibition Topo IV” value [2] was “n/a (n/a = not active)” and the “% inhibition DNA gyrase” value [3] was “n/a (n/a = not active)”. For the same molecule, the “% inhibition Topo IV” value [4] was “n/a (n/a = not active)”.

With `O=c1cc(OCCCN2CCN(c3nccc4ccccc34)CC2)c2ccccc2o1` [Compound 70, 4-{3-[4-(isoquinolin-1-yl)piperazin-1-yl]propoxy}-2H-chromen-2-one hydrochloride] the “% inhibition DNA gyrase” value [1] was 86%, the “% inhibition Topo IV” value [2] was “n/a (n/a = not active)” and the “% inhibition DNA gyrase” value [3] was 75%. For the same molecule, the “% inhibition Topo IV” value [4] was “n/a (n/a = not active)”.

`O=C1CN(c2nccc3ccccc23)CCN1CCCNc1cc(=O)oc2ccccc12` [Compound 71, 4-(isoquinolin-1-yl)-1-{3-[(2-oxo-2H-chromen-4-yl)amino]propyl}piperazin-2-one hydrochloride] was tested, and the “% inhibition DNA gyrase” value [1] was 56%, the “% inhibition Topo IV” value [2] was “n/a (n/a = not active)” and the “% inhibition DNA gyrase” value [3] was “n/a (n/a = not active)”. For the same molecule, the “% inhibition Topo IV” value [4] was “n/a (n/a = not active)”.

In the case of `O=c1cc(NC2CCCC(N3CCN(c4nccc5ccccc45)CC3)C2)c2ccccc2o1` (centres unmarked) [Compound 74, 4-({3-[4-(isoquinolin-1-yl)piperazin-1-yl]cyclohexyl}amino)-2H-chromen-2-one hydrochloride], the “% inhibition DNA gyrase” value [1] is reported as 65%, the “% inhibition Topo IV” value [2] is reported as “n/a (n/a = not active)” and the “% inhibition DNA gyrase” value [3] is reported as 61%. The “% inhibition Topo IV” value [4] was “n/a (n/a = not active)”.

From patent US10369130B2, “Antibacterial compounds” (AZIENDE CHIMICHE RIUNITE ANGELINI FRANCESCO A.C.R.A.F. …, priority 2014, dated 2019)
